Experimental data as given in ChEMBL document CHEMBL1201862, “PubChem BioAssay data set” (2004).
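96-well plates; 48 h exposure; 5 concentrations. Endpoints by linear interpolation between flanking doses. Not reached: highest tested concentration assigned. GI50 = concentration required for 50% inhibition of growth.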 Calls of active or inactive are those of the source. Cut-off read from the data, not from the text of the source: active = GI50 up to about 1.1 µM and inactive = higher.

Columns and labels:
Experiment in all cases: growth of human tumour cells (NCI), 48 h
A549 = system: A549
SN12C = system: SN12C
LOX IMVI = system: LOX IMVI
SF-268 = system: SF-268
HCC 2998 = system: HCC 2998
IGROV-1 = system: IGROV-1
COLO 205 = system: COLO 205
UO-31 = system: UO-31
EKVX = system: EKVX
786-0 = system: 786-0
SNB-19 = system: SNB-19
OVCAR-3 = system: OVCAR-3
TK-10 = system: TK-10
RPMI-8226 = system: RPMI-8226
NCI-H226 = system: NCI-H226
NCI-H522 = system: NCI-H522
SR = system: SR

| SMILES | GI50 (A549) | GI50 (SN12C) | GI50 (LOX IMVI) | GI50 (SF-268) | GI50 (HCC 2998) | GI50 (IGROV-1) | GI50 (COLO 205) | GI50 (UO-31) | GI50 (EKVX) | GI50 (786-0) | GI50 (SNB-19) | GI50 (OVCAR-3) | GI50 (TK-10) | GI50 (RPMI-8226) | GI50 (NCI-H226) | GI50 (NCI-H522) | GI50 (SR) |
| --- | --- | --- | --- | --- | --- | --- | --- | --- | --- | --- | --- | --- | --- | --- | --- | --- | --- |
| CC(=O)c1c(O)c2c([nH]c1=O)CCCC2 | 30 µM (inactive) | 22.5 µM (inactive) | 20.1 µM (inactive) | 46.8 µM (inactive) | 8.05 µM (inactive) | 32.9 µM (inactive) | > 100 µM (inactive) | 17.2 µM (inactive) | 51.1 µM (inactive) | > 100 µM (inactive) | 18 µM (inactive) | > 100 µM (inactive) | > 100 µM (inactive) | – | – | – | – |
| CN(C)c1n/c(=N/c2ccc3ccccc3c2)ss1 | 12.2 µM (inactive) | 32.9 µM (inactive) | – | 33.7 µM (inactive) | 33.7 µM (inactive) | 19 µM (inactive) | 11.2 µM (inactive) | 23.4 µM (inactive) | – | 37.6 µM (inactive) | 32 µM (inactive) | 12.2 µM (inactive) | 14.1 µM (inactive) | 6.9 µM (inactive) | 13.4 µM (inactive) | 7.41 µM (inactive) | 11.6 µM (inactive) |
| COC(=O)C(Cc1ccccc1)NC(=O)Cn1ccnc1[N+](=O)[O-] (centres undefined) | > 100 µM (inactive) | > 100 µM (inactive) | > 100 µM (inactive) | > 100 µM (inactive) | – | > 100 µM (inactive) | 77.3 µM (inactive) | > 100 µM (inactive) | > 100 µM (inactive) | > 100 µM (inactive) | > 100 µM (inactive) | > 10 µM (inactive) | > 100 µM (inactive) | > 100 µM (inactive) | 34 µM (inactive) | > 100 µM (inactive) | – |
| CN(C)CCC(/C=C/c1ccccc1)=N\Nc1ccc(Cl)c(Cl)c1 | 3.13 µM (inactive) | 3.52 µM (inactive) | 1.99 µM (inactive) | 2.56 µM (inactive) | – | 3.04 µM (inactive) | 2.6 µM (inactive) | 1.64 µM (inactive) | 3.66 µM (inactive) | 2.69 µM (inactive) | 5.53 µM (inactive) | 4.27 µM (inactive) | 2.38 µM (inactive) | 3.44 µM (inactive) | – | 2.1 µM (inactive) | 2.09 µM (inactive) |
| NC(=O)c1csc(C2C=CC(CO)O2)n1 (centres undefined) | > 100 µM (inactive) | > 100 µM (inactive) | > 100 µM (inactive) | > 100 µM (inactive) | > 100 µM (inactive) | > 100 µM (inactive) | > 100 µM (inactive) | > 100 µM (inactive) | > 100 µM (inactive) | > 100 µM (inactive) | > 100 µM (inactive) | > 10 µM (inactive) | > 100 µM (inactive) | > 100 µM (inactive) | > 100 µM (inactive) | > 100 µM (inactive) | – |
| Nc1nc2c(c(=O)[n-]1)[n+](CCO)cn2C1OC(CO)C(O)C1O (centres undefined) | > 100 µM (inactive) | > 100 µM (inactive) | > 100 µM (inactive) | > 100 µM (inactive) | – | > 100 µM (inactive) | > 100 µM (inactive) | > 100 µM (inactive) | > 100 µM (inactive) | > 100 µM (inactive) | – | > 100 µM (inactive) | > 100 µM (inactive) | > 100 µM (inactive) | > 100 µM (inactive) | > 100 µM (inactive) | > 100 µM (inactive) |
| COc1cc2c(cc1OC)C1Cc3cc(OC)c(OC)cc3N1CC2 (centres undefined) | 26.9 µM (inactive) | 75.2 µM (inactive) | – | 35 µM (inactive) | 79.4 µM (inactive) | 52.6 µM (inactive) | 20.5 µM (inactive) | 36.9 µM (inactive) | 27.7 µM (inactive) | 17.7 µM (inactive) | 36.2 µM (inactive) | 31.9 µM (inactive) | 23 µM (inactive) | 28.8 µM (inactive) | 20.3 µM (inactive) | 12.2 µM (inactive) | 35.9 µM (inactive) |
| O=C(CC1(O)C(=O)Nc2c(Cl)ccc(Cl)c21)c1ccc(Cl)cc1 (centres undefined) | 45.5 µM (inactive) | 18.2 µM (inactive) | 18.5 µM (inactive) | 37 µM (inactive) | 24.5 µM (inactive) | 23.9 µM (inactive) | 18.6 µM (inactive) | 34.4 µM (inactive) | 95.3 µM (inactive) | 16.7 µM (inactive) | 67.8 µM (inactive) | 23.3 µM (inactive) | > 100 µM (inactive) | 21 µM (inactive) | 38.5 µM (inactive) | – | – |
| COC(=O)C1=C(O)c2cc(-c3ccccc3)c(-c3ccccc3)c(C#N)c2NC(=O)C1 | 3.5 µM (inactive) | 47.9 µM (inactive) | – | – | 34.9 µM (inactive) | 0.522 µM (active) | 6.08 µM (inactive) | 1.4 µM (inactive) | > 100 µM (inactive) | 8.38 µM (inactive) | 20.4 µM (inactive) | 77.8 µM (inactive) | – | – | – | – | 2.96 µM (inactive) |
| Cc1cc(C)nc(NS(=O)(=O)c2ccc(Nc3c4ccccc4nc4c(C(=O)NCCN(C)C)cccc34)cc2)n1 | 3.13 µM (inactive) | 2.79 µM (inactive) | 1.74 µM (inactive) | 2.57 µM (inactive) | – | 2.83 µM (inactive) | 1.86 µM (inactive) | 1.49 µM (inactive) | 10.5 µM (inactive) | 11.6 µM (inactive) | 1.85 µM (inactive) | – | 10.6 µM (inactive) | – | 2.17 µM (inactive) | 0.566 µM (active) | 0.302 µM (active) |
| Cc1cc2c(C)n[nH]c2c(C(=O)O)c1C | > 100 µM (inactive) | > 100 µM (inactive) | – | – | > 100 µM (inactive) | > 100 µM (inactive) | > 100 µM (inactive) | 85.5 µM (inactive) | > 100 µM (inactive) | > 100 µM (inactive) | > 100 µM (inactive) | > 100 µM (inactive) | – | > 100 µM (inactive) | – | – | > 100 µM (inactive) |
| CCCNCCCCC(NC(C)=O)C(=O)NCc1ccccc1 (centres undefined) | > 100 µM (inactive) | > 100 µM (inactive) | > 100 µM (inactive) | > 100 µM (inactive) | > 100 µM (inactive) | > 100 µM (inactive) | > 100 µM (inactive) | > 100 µM (inactive) | > 100 µM (inactive) | > 100 µM (inactive) | > 100 µM (inactive) | > 100 µM (inactive) | > 100 µM (inactive) | > 100 µM (inactive) | > 100 µM (inactive) | > 100 µM (inactive) | – |
| CSC(C1c2ccccc2N(c2ccc(C)cc2)C2=NC(=O)N(C)C(=O)C21Cl)S(=O)(=O)c1ccc(C)cc1 (centres undefined) | 34 µM (inactive) | 21.7 µM (inactive) | 20.5 µM (inactive) | 23.6 µM (inactive) | 20.4 µM (inactive) | 33.3 µM (inactive) | 19.3 µM (inactive) | 22.4 µM (inactive) | 35.4 µM (inactive) | 18.5 µM (inactive) | 26.4 µM (inactive) | 13.2 µM (inactive) | 48.6 µM (inactive) | 16 µM (inactive) | 22.2 µM (inactive) | 13.4 µM (inactive) | – |
| COC1CC(n2cc(F)c(N)nc2=O)OC1CO (centres undefined) | > 100 µM (inactive) | > 100 µM (inactive) | > 100 µM (inactive) | > 100 µM (inactive) | 9.77 µM (inactive) | – | > 100 µM (inactive) | > 100 µM (inactive) | > 100 µM (inactive) | > 100 µM (inactive) | > 100 µM (inactive) | > 100 µM (inactive) | > 100 µM (inactive) | > 100 µM (inactive) | > 100 µM (inactive) | > 100 µM (inactive) | – |
